Data: PMC10952689 (Angewandte Chemie (International Ed. in English), 2023)

Biological target: T1, human TRPV1 (Homo sapiens, UniProt Q8NER1)
T1 construct: expressed in transfected cells
Format: cell-based
Procedure: Oocytes were held at −60 mV and data normalised to currents elicited by 10 μM capsaicin. (D) Reversibility of DkTx and Y35G evoked rat TRPV1 response at the indicated peptide concentrations using TEVC oocytes. Data points represent the fraction of currents remaining during the washout as a ratio to the maximal current evoked by each sample. (E) Washout shown as fractional current determined by whole‐cell patch clamp recordings from HEK293 cells expressing TRPV1 (voltage‐clamped at −80 mV). […] The time constant for decay was not fitted and calculated in panels D and E, as it could not be accurately determined for data sets with minimal washout over the experimental time course. All data are mean ± standard error of the mean (n=5–7).

T1 sequence (Q8NER1 whole entry): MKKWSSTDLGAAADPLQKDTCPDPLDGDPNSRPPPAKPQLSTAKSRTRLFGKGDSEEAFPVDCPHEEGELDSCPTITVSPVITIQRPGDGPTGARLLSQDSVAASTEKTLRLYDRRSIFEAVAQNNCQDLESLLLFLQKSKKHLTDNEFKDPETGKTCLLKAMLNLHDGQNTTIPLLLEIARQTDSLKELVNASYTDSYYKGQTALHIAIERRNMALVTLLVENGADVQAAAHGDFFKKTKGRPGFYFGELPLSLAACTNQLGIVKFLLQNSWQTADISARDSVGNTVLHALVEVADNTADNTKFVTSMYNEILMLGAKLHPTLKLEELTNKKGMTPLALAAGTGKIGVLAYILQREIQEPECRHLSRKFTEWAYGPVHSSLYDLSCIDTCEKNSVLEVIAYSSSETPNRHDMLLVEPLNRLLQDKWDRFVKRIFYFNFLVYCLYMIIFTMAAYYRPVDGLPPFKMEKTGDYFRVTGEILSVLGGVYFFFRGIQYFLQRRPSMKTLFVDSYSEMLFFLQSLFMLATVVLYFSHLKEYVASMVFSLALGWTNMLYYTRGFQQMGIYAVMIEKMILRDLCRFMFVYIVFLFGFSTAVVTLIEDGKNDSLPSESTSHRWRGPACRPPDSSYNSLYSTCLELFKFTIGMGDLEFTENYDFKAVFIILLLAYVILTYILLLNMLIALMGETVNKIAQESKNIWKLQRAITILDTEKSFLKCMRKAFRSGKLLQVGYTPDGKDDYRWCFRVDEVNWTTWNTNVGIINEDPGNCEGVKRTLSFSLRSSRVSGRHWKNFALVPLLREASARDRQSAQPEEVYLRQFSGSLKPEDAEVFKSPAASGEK

Compound | reversibility of TRPV1 current upon washing | inhibition of iDkTx-evoked currents (10 μM ruthenium red against 2 μM iDkTx, +80 mV, HEK293, Figure 1E–F)
COc1cc(CNC(=O)CCCC/C=C/C(C)C)ccc1O [capsaicin] | rapidly reversible upon washing | –
N.N.N.N.N.N.N.N.N.N.N.N.N.N.[Cl-].[Cl-].[Cl-].[Cl-].[Cl-].[Cl-].[O-2].[O-2].[Ru+3].[Ru+3].[Ru+4] [ruthenium red] | – | fully inhibited
